Assay results taken from US20250388575A1, “HETEROBIFUNCTIONAL COMPOUNDS AND METHODS OF TREATING DISEASE” (Halda Therapeutics OpCo, Inc., priority 2022, published 2025).
Read-outs that look alike come from different tables or passages of the source.

Legend:
[1] = tested on: T-Rex 293 cell line SC3 cells lacking increased expression of androgen receptor protein; assay: Cellular growth inhibition, T-Rex 293 SC3 cells lacking increased androgen receptor expression (no doxycycline), CellTiter-Glo; format: cell-based; conditions: T-Rex 293 SC3 cells lacking increased androgen receptor expression (not exposed to doxycycline), 72 hours, CellTiter-Glo; read-out: GI50
Method: (§1) The following types of cells were prepared for this experiment: (i) a T-Rex 293 cell line having increased expression of androgen receptor protein due to exposure to doxycycline and (ii) a T-Rex 293 cell line lacking increased expression of androgen receptor protein. Ability of the test compounds to inhibit proliferation of the foregoing cell types was evaluated according to the procedures set forth below.
(§2) The doxycycline-inducible androgen receptor protein expressing cell line was established using the following protocol: T-Rex 293 cells were purchased from Invitrogen (Cat #R71007) and transfected using Lipofectamine 2000 with the wild-type androgen receptor protein sequence cloned into the pcDNA4/TO vector. Transfected cells were selected using 400 μg/mL Zeocin (Invitrogen Cat #R25001). Following selection, single clones were raised and maintained in Dulbecco's Modified Eagle Medium (DMEM) supplemented with 10% w/w Tetracycline-free fetal bovine serum (FBS) and 250 μg/mL Zeocin. Clones were analyzed for expression of androgen receptor protein in the presence and absence of 10 ng/ml doxycycline (Sigma Cat #D9891), and a single doxycycline-inducible clone (hereinafter “SC3”) was selected for use in downstream assays.
(§3) The SC3 cells were seeded on poly-D-lysine coated, black clear-bottom 384-well plates at 2500/well, in 25 μL Phenol Red Free Dulbecco's Modified Eagle Medium (DMEM) supplemented with 10% w/w charcoal-dextran treated fetal bovine serum (FBS) and 1% w/w pen-strep, with or without 10 ng/mL doxycycline. Pen-Strep is a commercially available mixture of penicillin G and streptomycin, which is used in mammalian cell culture media to prevent bacterial contamination. Phenol Red Free Dulbecco's Modified Eagle Medium (DMEM) supplemented with 10% w/w charcoal-dextran treated fetal bovine serum (FBS) and 1% w/w pen-strep, with or without 10 ng/mL doxycycline is herein referred to as Treatment Medium. Following seeding of cells in the plates, the plates were spun at 300×g for 30 seconds, then equilibrated to room temperature for 30 minutes, and then deposited in a humidified tissue culture incubator maintained at 37° C. with 5% CO2.
(§4) At 24 hours after seeding of the cells, dilutions of test compound were prepared in DMSO and dissolved in Treatment Medium, to achieve a final DMSO concentration of 0.5% w/w, thereby providing the Test Compound Solution. A 25 μL aliquot of the Test Compound Solution was added to cells in the well plates. An equal volume of a solution containing DMSO and Treatment Medium was used as a negative control. Following treatment of cells with Test Compound Solution or said equal volume of a solution containing DMSO and Treatment Medium, the plates were spun at 300×g for 30 seconds, and then left in an incubator for 72 hours.
(§5) At the end of the treatment duration, cell viability was quantified with CellTiter-Glo 2.0 reagent (Promega Cat #G9243). For this purpose, plates were equilibrated to room temperature for 30 minutes, and then 25 μL of CellTiter-Glo 2.0 reagent was added to cells in the plate wells. Plates were then agitated on a shaker for two minutes at 500 rpm and subsequently incubated at room temperature for 10 minutes. Following incubation, the plates were spun at 3000×g for 30 seconds, then sealed with an optical adhesive cover, and luminescence readings were measured with an EnVision Plate Reader.
(§6) Data was normalized using zero luminescence for baseline. A four-parameter non-linear regression curve fit was applied to dose-response data in GraphPad Prism data analysis software to determine the half-maximal growth inhibitory concentration (GI50) for each test compound.

[2] = tested on: T-Rex 293 cell line SC3 cells having increased expression of androgen receptor protein; assay: Cellular growth inhibition, T-Rex 293 SC3 cells with increased androgen receptor expression (doxycycline), CellTiter-Glo; format: cell-based; conditions: T-Rex 293 SC3 cells with increased androgen receptor expression (exposed to 10 ng/mL doxycycline), 72 hours, CellTiter-Glo; read-out: GI50
Method: as §1, §2, §3, §4, §5, §6

VCaP cells = assay: Cellular growth inhibition assay for VCaP cells, CellTiter-Glo; format: cell-based, human; conditions: VCaP cells, 72 hours, CellTiter-Glo, read-out: GI50
Method: VCaP cells were purchased from American Type Cell Culture (ATCC Cat #CRL2876) and then seeded on poly-D-lysine coated, black clear-bottom 384-well plates at 5000/well in 25 μL Dulbecco's Modified Eagle Medium (DMEM) supplemented with 10% w/w Fetal bovine serum (FBS) and 1% w/w Pen-Strep. Pen-Strep is a commercially available mixture of penicillin G and streptomycin, which is used in mammalian cell culture media to prevent bacterial contamination. Dulbecco's Modified Eagle Medium (DMEM) supplemented with 10% w/w fetal bovine serum (FBS) and 1% w/w Pen-Strep is herein referred to as Treatment Medium. Following seeding of cells in the plates, the plates were spun at 300×g for 30 seconds, then equilibrated to room temperature for 30 minutes, and then deposited in a humidified tissue culture incubator maintained at 37° C. with 5% CO2.
as §4, §5, §6

T47D cells = assay: Cellular growth inhibition assay for T47D cells, CellTiter-Glo; format: cell-based, human; conditions: 72 hours treatment, CellTiter-Glo 2.0
Method: T47D cells were purchased from American Type Cell Culture (ATCC Cat #HTB-133) and then seeded on poly-D-lysine coated, black clear-bottom 384-well plates at 3000/well in 25 μL Dulbecco's Modified Eagle Medium (DMEM) supplemented with 10% w/w Fetal bovine serum (FBS), 0.2 units/mL recombinant human insulin (Gibco Cat #12585014), and 1% w/w Pen-Strep. Pen-Strep is a commercially available mixture of penicillin G and streptomycin, which is used in mammalian cell culture media to prevent bacterial contamination. Dulbecco's Modified Eagle Medium (DMEM) supplemented with 10% w/w fetal bovine serum (FBS), 0.2 units/mL recombinant human insulin, and 1% w/w Pen-Strep is herein referred to as Treatment Medium. Following seeding of cells in the plates, the plates were spun at 300×g for 30 seconds, then equilibrated to room temperature for 30 minutes, and then deposited in a humidified tissue culture incubator maintained at 37° C. with 5% CO2.
as §4
as §5, with “Reader (Perkin Elmer).” for “Reader.”
as §6

Row | SMILES | GI50 [1] [nM] | GI50 [2] [nM] | GI50 (VCaP cells; Homo sapiens) [nM] | GI50 (T47D cells; Homo sapiens) [nM] | GI50 (VCaP cells) [nM] | GI50 (T47D cells) [nM]
1 | CCS(=O)(=O)Nc1ccc(Oc2cccc(N3CC(N4CCN(c5ccc(C(=O)N[C@H]6CC[C@H](Oc7ccc(C#N)c(Cl)c7)CC6)nn5)CC4)C3)c2F)c(-c2cn(C)c(=O)c3[nH]ccc23)c1 [I-12] | > 3000 | < 500 | < 500 | < 500 | – | –
2 | CCS(=O)(=O)Nc1ccc(Oc2cccc(CCC3CCN(c4ccc(C(=O)N[C@H]5CC[C@H](Oc6ccc(C#N)c(Cl)c6)CC5)nn4)CC3)c2F)c(-c2cn(C)c(=O)c3[nH]ccc23)c1 [I-21] | > 3000 | < 500 | < 500 | < 500 | – | –
3 | CCS(=O)(=O)Nc1ccc(Oc2cccc(COC3CCN(c4ccc(C(=O)N[C@H]5CC[C@H](Oc6ccc(C#N)c(Cl)c6)CC5)nn4)CC3)c2F)c(-c2cn(C)c(=O)c3[nH]ccc23)c1 [I-26] | > 3000 | < 500 | < 500 | < 500 | – | –
4 | CCS(=O)(=O)c1ccc(Oc2ccc(OCC3CCN(c4ccc(C(=O)N[C@H]5CC[C@H](Oc6ccc(C#N)c(Cl)c6)CC5)nn4)CC3)cc2)c(-c2cn(C)c(=O)c3[nH]ccc23)c1 [I-41] | < 500 | < 500 | – | – | < 500 | < 500
5 | CCS(=O)(=O)c1ccc(Oc2ccc(OCC3CCN(c4ccc(C(=O)N[C@H]5CC[C@H](Oc6ccc(C#N)c(Cl)c6)CC5)nn4)CC3)cc2F)c(-c2cn(C)c(=O)c3[nH]ccc23)c1 [I-43] | < 500 | < 500 | – | – | < 500 | < 500
6 | CCS(=O)(=O)c1ccc(Oc2ccc(OC3CC4(C3)CN(c3ccc(C(=O)N[C@H]5CC[C@H](Oc6ccc(C#N)c(Cl)c6)CC5)nn3)C4)c(F)c2)c(-c2cn(C)c(=O)c3[nH]ccc23)c1 [I-44] | < 500 | < 500 | < 500 | < 500 | – | –
7 | CCS(=O)(=O)c1ccc(Oc2cccc(CCCOC3CC4(C3)CN(c3cnc(C(=O)N[C@H]5CC[C@H](Oc6ccc(C#N)c(Cl)c6)CC5)cn3)C4)c2F)c(-c2cn(C)c(=O)c3[nH]ccc23)c1 [I-48] | < 500 | < 500 | 500 to 1500 | < 500 | – | –
8 | CN(CCCCc1ccc(Oc2ccc(C(C)(C)O)cc2-c2cn(C)c(=O)c3[nH]ccc23)cc1)c1ccc(C(=O)N[C@H]2CC[C@H](Oc3ccc(C#N)c(Cl)c3)CC2)nn1 [I-122] | – | – | – | – | < 500 | < 500
9 | Cn1cc(-c2cc(C(C)(C)O)ccc2Oc2ccc(CCCC3CCN(c4ccc(C(=O)N[C@H]5CC[C@H](Oc6ccc(C#N)c(Cl)c6)CC5)nn4)CC3)cc2)c2cc[nH]c2c1=O [I-124] | – | – | < 500 | < 500 | – | –
10 | CCS(=O)(=O)c1ccc(Oc2ccc(CCC3CCN(c4ccc(C(=O)NC5CCC(Oc6ccc(C#N)c(Cl)c6)CC5)nn4)CC3)c(F)c2)c(-c2cn(C)c(=O)c3ccccc23)c1 (centres unmarked) [I-243, N-[4-(3-chloro-4-cyano-phenoxy)cyclohexyl]-6-[4-[2-[4-[4-ethylsulfonyl-2-(2-methyl-1-oxo-4-isoquinolyl)phenoxy]-2-fluoro-phenyl]ethyl]-1-piperidyl]pyridazine-3-carboxamide] | > 3000 | < 500 | < 500 | – | – | –
11 | Cn1cc(-c2cc(C(C)(C)O)ccc2OC2CC(OCC3CCN(c4ccc(C(=O)NC5CCC(Oc6ccc(C#N)c(Cl)c6)CC5)nn4)CC3)C2)c2ccccc2c1=O (centres unmarked) [I-247, N-[4-(3-chloro-4-cyano-phenoxy)cyclohexyl]-6-[4-[[3-[4-(1-hydroxy-1-methyl-ethyl)-2-(2-methyl-1-oxo-4-isoquinolyl)phenoxy]cyclobutoxy]methyl]-1-piperidyl]pyridazine-3-carboxamide] | > 3000 | < 500 | < 500 | – | – | –
12 | Cn1cc(-c2ccccc2Oc2ccc(OCC3CCN(c4ccc(C(=O)N[C@H]5CC[C@H](Oc6ccc(C#N)c(Cl)c6)CC5)nn4)CC3)cc2)c2cc[nH]c2c1=O [I-255, N-[4-(3-chloro-4-cyano-phenoxy)cyclohexyl]-6-[4-[[4-[2-(6-methyl-7-oxo-1H-pyrrolo[2,3-c]pyridin-4-yl)phenoxy]phenoxy]methyl]-1-piperidyl]pyridazine-3-carboxamide] | > 3000 | < 500 | < 500 | – | – | –
